The values that follow come from patent US12398141B2 (SHANGHAI SYNERGY PHARMACEUTICAL SCIENCES CO., LTD, priority 2019, dated 2025).

In test [1] the target is JAK3 (Homo sapiens (Human), UniProt P52333). Briefly: JAK3 LANCE Ultra kinase assay. It is filed as biochemical. The conditions noted are these: 4 uM ATP.
Test [2] concerns the target JAK1 (Homo sapiens (Human), UniProt P23458). The experiment in a line: JAK1 LANCE Ultra kinase assay. It is filed as biochemical. The settings on record: for IC50: 38 uM ATP; for JAK2/JAK1: ratio of IC50 JAK2 to IC50 JAK1. The method in brief:
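JAK1 preincubated with compound 10 min at room temperature, then ULight-JAK-1 peptide/ATP added for 90 min at room temperature; stopped with EDTA, Eu-W1024 anti-phosphotyrosine TR-FRET read after 60 min. Inhibition normalised to DMSO and blank wells; IC50 from curve fit.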

For test [3], the system named is male ICR mice. Briefly: Carrageenan-induced paw swelling in mice. It is filed as in vivo. The conditions noted are these: 10 mg/kg intragastric; for Paw swelling_0.5 h (%): 0.5 h; for Paw swelling rate_1 h (%): 1 h; for Paw swelling rate_2 h (%): 2 h. As to the method:
The inhibiting effects of compounds H01, H07, H11, H12, H14, H15, H22, H25, H29, H30, H33, H39 and H44 on paw swelling in mice were determined after intragastric administration by using male ICR mice (ShanghaiSippr-BK laboratory animal Co. Ltd.), aged 8 weeks and weighing 22-24 g as test animals. The anti-inflammatory pharmacodynamics characteristic of the compounds of the invention was discussed.
A certain amount of compounds were taken and dissolved in 4% Tween 80/0.5% hydroxy propyl methyl cellulose solution. A volume of intragastric administration in mice was 10 ml/kg.
Mice were given 10 mg/kg compounds H01, H07, H11, H12, H14, H15, H22, H25, H29, H30, H33, H39, and H44 and the positive drug indomethacin (Diamond Reagent Co., Ltd., China) by intragastric administration at the dosages shown in the table below and 20 μL 1% (W/V) carrageenan was injected subcutaneously into the plantar 0.5 h later. A paw volume was measured with a paw swelling meter before and at different time points after modeling (0.5 h, 1 h and 2 h). According to the formula: paw swelling rate=(paw volume after administration−basic paw volume)/basic paw volume×100, the inhibiting effect of the compounds on paw volume was calculated. The basic paw volume was a paw volume before administration.

Sequence of JAK1 (P23458 whole entry): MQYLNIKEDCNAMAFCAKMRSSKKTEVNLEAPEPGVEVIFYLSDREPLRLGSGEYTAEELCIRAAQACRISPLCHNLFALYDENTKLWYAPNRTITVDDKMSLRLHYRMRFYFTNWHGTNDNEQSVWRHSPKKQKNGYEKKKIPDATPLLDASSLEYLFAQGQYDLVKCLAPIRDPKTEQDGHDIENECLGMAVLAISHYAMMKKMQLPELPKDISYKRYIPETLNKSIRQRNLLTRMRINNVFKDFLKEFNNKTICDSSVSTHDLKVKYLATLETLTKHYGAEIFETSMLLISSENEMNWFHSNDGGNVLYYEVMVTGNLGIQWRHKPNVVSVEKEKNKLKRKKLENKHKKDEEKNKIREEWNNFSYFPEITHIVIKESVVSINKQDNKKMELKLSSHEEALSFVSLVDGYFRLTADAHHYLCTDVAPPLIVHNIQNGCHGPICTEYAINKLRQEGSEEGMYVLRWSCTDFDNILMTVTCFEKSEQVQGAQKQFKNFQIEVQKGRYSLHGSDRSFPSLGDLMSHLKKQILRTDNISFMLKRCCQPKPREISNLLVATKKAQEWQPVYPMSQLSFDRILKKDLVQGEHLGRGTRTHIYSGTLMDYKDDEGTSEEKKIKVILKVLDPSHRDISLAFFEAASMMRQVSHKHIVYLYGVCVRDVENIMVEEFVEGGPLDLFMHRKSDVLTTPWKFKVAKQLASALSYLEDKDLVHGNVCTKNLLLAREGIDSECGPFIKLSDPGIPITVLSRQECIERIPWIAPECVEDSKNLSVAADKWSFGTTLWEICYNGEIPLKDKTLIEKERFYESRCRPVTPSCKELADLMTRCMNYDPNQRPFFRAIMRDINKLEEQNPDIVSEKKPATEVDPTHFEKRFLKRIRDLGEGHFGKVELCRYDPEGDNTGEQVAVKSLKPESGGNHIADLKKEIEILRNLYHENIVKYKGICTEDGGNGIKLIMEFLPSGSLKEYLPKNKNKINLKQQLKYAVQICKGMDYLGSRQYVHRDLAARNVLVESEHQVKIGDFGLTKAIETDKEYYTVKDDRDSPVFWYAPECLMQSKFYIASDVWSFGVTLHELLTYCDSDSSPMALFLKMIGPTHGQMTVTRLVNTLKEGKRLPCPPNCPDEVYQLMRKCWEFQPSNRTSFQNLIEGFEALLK
Sequence of JAK3 (P52333 whole entry): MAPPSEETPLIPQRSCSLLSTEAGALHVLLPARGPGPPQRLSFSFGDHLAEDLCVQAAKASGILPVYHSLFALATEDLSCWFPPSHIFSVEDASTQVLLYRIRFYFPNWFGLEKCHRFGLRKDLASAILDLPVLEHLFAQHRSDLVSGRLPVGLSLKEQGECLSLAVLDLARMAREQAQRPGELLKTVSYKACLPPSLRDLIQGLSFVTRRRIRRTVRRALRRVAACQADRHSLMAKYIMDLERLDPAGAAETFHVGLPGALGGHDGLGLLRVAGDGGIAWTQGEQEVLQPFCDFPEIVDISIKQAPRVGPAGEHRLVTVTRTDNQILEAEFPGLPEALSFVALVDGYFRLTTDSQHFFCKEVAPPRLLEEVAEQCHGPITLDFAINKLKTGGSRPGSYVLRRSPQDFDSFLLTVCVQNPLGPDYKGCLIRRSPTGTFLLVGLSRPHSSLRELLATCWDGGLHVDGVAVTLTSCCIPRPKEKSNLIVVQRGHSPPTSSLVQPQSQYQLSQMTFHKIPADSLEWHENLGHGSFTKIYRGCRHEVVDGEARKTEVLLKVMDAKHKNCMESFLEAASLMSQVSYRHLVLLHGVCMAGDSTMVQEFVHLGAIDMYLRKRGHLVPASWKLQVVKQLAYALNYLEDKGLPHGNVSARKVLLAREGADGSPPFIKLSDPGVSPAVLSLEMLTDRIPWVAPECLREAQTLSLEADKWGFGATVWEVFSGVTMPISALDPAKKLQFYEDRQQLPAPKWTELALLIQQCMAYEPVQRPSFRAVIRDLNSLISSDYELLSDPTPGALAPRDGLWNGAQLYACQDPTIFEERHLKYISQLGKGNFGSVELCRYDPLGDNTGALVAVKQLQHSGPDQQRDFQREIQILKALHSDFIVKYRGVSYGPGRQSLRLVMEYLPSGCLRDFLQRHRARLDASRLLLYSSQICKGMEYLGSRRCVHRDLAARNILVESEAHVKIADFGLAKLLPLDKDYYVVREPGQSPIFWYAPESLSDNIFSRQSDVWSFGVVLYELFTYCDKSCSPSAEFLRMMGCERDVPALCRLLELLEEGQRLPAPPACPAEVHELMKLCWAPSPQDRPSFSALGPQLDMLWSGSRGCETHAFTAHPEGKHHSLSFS

Turning to `COc1nsc(NC(=O)N[C@H]2C[C@@H](N(C)c3c(C#N)cnc4[nH]ccc34)C2)n1` [Compound H29, (cis)-1-(3-((5-cyano-1H-pyrrolo[2,3-b]pyridin-4-yl)(methyl)amino)cyclobutyl)-3-(3-methoxy-1,2,4-thiadiazole-5-yl)urea], in test [1], inhibition was half-maximal at 60 nM (IC50). Further, in test [2], the half-inhibitory concentration (IC50) came out at 0.36 nM and the JAK2/JAK1 is 18.89. Further, in test [3], the “Paw swelling_0.5 h (%)” value stood at 33.03 ± 4.23%, the “Paw swelling rate_1 h (%)” value came out at 41.65 ± 2.21% and the “Paw swelling rate_2 h (%)” value worked out at 40.10 ± 4.32%.

Consider `C[C@@H]1CCN(C(=O)CC#N)C[C@@H]1N(C)c1c(C#N)cnc2[nH]ccc12` [Compound H11, 4-{[(3R,4R)-1-(2-cyanoacetyl)-4-methylpiperidin-3-yl]-methyl-amino}-1H-pyrrolo[2,3-b]pyridin-5-carbonitrile], for which half-maximal inhibition in test [1] (IC50) was put at 77 nM. In addition, in test [2], the IC50 was found to be 1.28 nM and the JAK2/JAK1 is 7.70. In test [3], the “Paw swelling_0.5 h (%)” value is 30.22 ± 2.62%, the “Paw swelling rate_1 h (%)” value is 39.76 ± 1.20% and the “Paw swelling rate_2 h (%)” value was 40.25 ± 5.47%.

`CN(c1c(C#N)cnc2[nH]ccc12)[C@H]1C[C@@H]2CN(C(=O)NCC(F)(F)F)C[C@@H]2C1` [Compound H22, (3aR,5s,6aS)-4-({2-[(2,2,2-trifluoroethyl)-carbamoyl]-hexahydrocyclopenta[c]pyrrole-5-yl}-methyl-amino)-1H-pyrrolo[2,3-b]pyridin-5-carbonitrile]: the 50% inhibitory concentration (IC50) in test [1] was found to be 58 nM. Besides, in test [2], 0.35 nM corresponded to half-maximal inhibition (IC50) and the JAK2/JAK1 is 16.40. In test [3], the “Paw swelling_0.5 h (%)” value came to 31.22 ± 2.62%, the “Paw swelling rate_1 h (%)” value was 41.76 ± 1.20% and the “Paw swelling rate_2 h (%)” value stood at 42.25 ± 5.67%.

Take `CN(c1c(C#N)cnc2[nH]ccc12)[C@H]1C[C@@H](NS(=O)(=O)CCC(F)(F)F)C1` [Compound H15, (cis)-4-{[3-(3,3,3-trifluoropropanesulfonamide)-cyclobutyl-1-yl]-methyl-amino}-1H-pyrrolo[2,3-b]pyridin-5-carbonitrile]: the IC50 in test [1] stood at 244 nM. For the same compound, in test [2], the IC50 amounted to 2.36 nM and the JAK2/JAK1 turned out to be 7.03. In test [3], the “Paw swelling_0.5 h (%)” value turned out to be 36.02 ± 1.37%, the “Paw swelling rate_1 h (%)” value turned out to be 43.33 ± 2.30% and the “Paw swelling rate_2 h (%)” value is 43.24 ± 4.36%.

`CN(C)c1nsc(NC(=O)N2C[C@H]3C[C@H](N(C)c4c(C#N)cnc5[nH]ccc45)C[C@H]3C2)n1` [Compound H33, (3aR,5s,6aS)-4-({2-[(3-dimethylamino-1,2,4-thiadiazole-5-yl)carbamoyl]-hexahydrocyclopenta[c]pyrrole-5-yl}-methyl-amino)-1H-pyrrolo[2,3-b]pyridin-5-carbonitrile] showed an IC50 in test [1] of 40 nM. For the same compound, in test [2], inhibition was half-maximal at 0.65 nM (IC50) and the JAK2/JAK1 was found to be 8.77. In addition, in test [3], the “Paw swelling_0.5 h (%)” value was 30.78 ± 2.62%, the “Paw swelling rate_1 h (%)” value was determined as 31.76 ± 1.86% and the “Paw swelling rate_2 h (%)” value was determined as 41.75 ± 5.67%.
